Test results: patent US6630347B1, “Endothelial NOS transgenic animals and methods of use” (The General Hospital Corporation, priority 1996, dated 2003)
Structures can show the parent of a compound that is named as a salt. Marks after values point to notes of the source that are not given here.

How the values were obtained:
[1] = Babbedge et al. (1993); cited from earlier work
NOS binding sites = test: [3H]L-NG-nitro-arginine autoradiographic binding assay in brain sections; set-up: species or system mouse; conditions: for L-NA displaceable [3H]L-NA binding in the presence of 7-NI: 100 μM 7-NI; for L-NA displaceable [3H]L-NA binding in the presence of D-NA: 10 μM D-NA
Protocol: Mice and rats were sacrificed by decapitation under 2% halothane anesthesia (30% O2+70% N2O). The brains were rapidly removed, immediately frozen in powdered dry ice, and stored at −70° C. Twelve μm sagittal or coronal sections were cut in a cryostat-microtome at −18° C. (Leitz 1720, Leica, Deerfield, Ill., U.S.A.) and thaw-mounted onto gelatin-coated slides (1% gelatin and 0.1% KCr2O). Adjacent sections were stained with cresyl violet and hematoxylin eosin, and stored at −70° C.
The method for the autoradiographic visualization of NOS binding using [^3H]L-NG-Nitro-arginine ([^3H]L-NA) has been described previously. Rutherford et al., (1995). Prior to experiments, sections were brought to −20° C. and then to room temperature. Sections were preincubated for 15 min at room temperature in 50 mM Tris-HCl (pH 7.3) to remove the endogenous ligands and/or modulators, then incubated for 30 min at room temperature in 50 mM Tris-HCl buffer containing 10 μM CaCl2 and 25 nM N^G-nitro-L-[2,3,4,5-H]arginine hydrochloride ([^3H]L-NA, specific activity: 48-57 Ci/mmol, Amersham, Arlington Heights, Ill., U.S.A.). Unlabelled L-N^G-nitro-arginiine (L-NA, Sigma, St. Louis, Mo., U.S.A.), D-N^G-nitro-arginine (D-NA, RBI, Natick, Mass., U.S.A.) and 7-nitroindazole (7-NI, Cookson Chemicals Ltd., England) was added at concentrations of 10, 10, and 100 μM, respectively. The sections were then washed twice for 5 min in ice-cold buffer and rinsed for 10 sec in ice-cold distilled water to eliminate residual buffer. After drying with cold air, the slides were tightly apposed to ^3H-Hyperfilm (Amersham) together with tritiated polymer standards (Amersham) and exposed at −4° C. for 6 weeks.
Films were developed in Kodak D-19 and fixed in Kodak Rapid Fixer, according to the manufacturer's instructions. The optical density of the regions of interest was measured by a computer-assisted image analysis (System M4, Imaging Research, St. Catharines, Ontario, Canada). The relationship between optical density and radioactivity was examined with reference to the tritium standards (Amersham, [^3H]microscale) co-exposed with the tissue sections. […] The densities of NOS binding sites are expressed in fmol bound [^3H]L-NA/mg tissue using the [^3H]L-NA concentration of 25 nM.

[2] = Blood pressure responses to L-NA (femoral artery catheterization); assay type: in vivo, mice
Protocol: Mice were kept at normal temperature (37° C.), anesthetized with urethane ([…], intraperitoneal injection) or halothane inhalation, and ventilated using an SAR-830 mouse ventilator (CWE Instruments). Depth of anesthesia was adjusted to keep the blood pressure of animals unresponsive to tail-pinch with forceps. End-tidal CO2 was monitored with a microcapnometer and kept constant by adjustment of respiratory parameters. The right femoral artery was cannulated using stretched PE-10 polyethylene tubing (Clay Adams) for mean arterial blood pressure recordings using an ETH-400 transducer and a MacLab data acquisition system (ADI Instruments). For awake measurements, the femoral artery catheter was placed under halothane anesthesia and the wound was covered with 1% xylocane ointment to diminish discomfort. Recordings were made within one hour of the procedure. Data are expressed as means with standard deviation. Statistical evaluation was performed by t-test.
Mean arterial blood pressure (MABP) of urethane-anesthetized wild-type (solid line in FIG. 5) and eNOS mutant mice (dotted line in FIG. 5) were measured by femoral artery catheterization and recorded for 30 minutes of baseline before L-NA administration (arrows in FIG. 5). At time 0, 12 mg/kg of L-NA was given intraperitoneally. […] The blood pressure of eNOS mutant mice dropped from a baseline of 98 mm Hg to 66 mm Hg (n=5). […]

pial arterioles = test: Pial arteriole diameter during superfusion in closed cranial window; assay type: in vivo, mice
Text: The mouse head was fixed in a stereotaxic frame and the skull exposed by a longitudinal skin incision. A stainless steel cranial window ring (8.0 mm in inner diameter, 2.0 mm in height) containing three ports was imbedded into a loop of bone wax over the skull. Dental acrylic was then applied. A craniotomy (2×1.5 mm) was made in the left parietal bone within the ring of the window. After dura was opened and the brain surface superfused with artificial cerebrospinal fluid (aCSF), a cover glass was placed to close the window. The volume under the window was approximately 0.1 ml. The composition of aCSF was as follows (in mMol/L): […] The aCSF was superfused by an infusion pump (0.4 ml/min) via a PE-100 tubing connected to a window port. Intracranial pressure was maintained at 5-8 mm Hg. The temperature of aCSF within the windows was maintained at 36.5-37.0° C. Pial vessels were visualized through a cranial window by an intravital microscope (Leitz, Germany) equipped with a video camera ([…], Hamamatsu Photonics, Hamamatsu, Japan). The diameter of a single pial arteriole (20-30 μm) was continuously measured by a video width analyzer ([…], Hamamatsu, Japan) and recorded using the MacLab data acquisition and analysis system. After baseline stabilization, nitro-L-arginine or nitro-D-arginine solution (1 mM) was superfused into the window and the diameter of pial arteriole measured continuously 40 min thereafter.

aortic rings = test: Endothelium-dependent relaxation of aortic rings in response to acetylcholine; set-up: species or system mice
Text: The rings were pre-contracted with 10^−7 M norepinephrine and exposed to increasing concentrations of acetylcholine (ACh) from 10^−8 M to 3×10^−5 M. 2-3 segments were collected from each mouse, and five mice were used from the wild-type and eNOS mutant groups. Mean data from each animal were used. Respective tracings are shown. Acetylcholine concentrations are expressed in logM.

[3] = Cerebral infarct size 24 hrs after middle cerebral artery (MCA) occlusion; assay type: in vivo, mice
Text: Male and female wild-type (SV-129 and C57 Black/6, Taconic Farms, Germantown, N.Y.) and eNOS mutant mice weighing 20 to 26 g were housed under diurnal lighting conditions and allowed free access to food and water ad libitum.
Mice were anesthetized with 2% halothane for induction and maintained on 1% halothane in 70/30% nitrous oxide/oxygen by mask. The right femoral artery was cannulated with PE-10 polyethylene tubing for arterial blood pressure measurement (Gould, Oxnard, Calif.) and blood gas determination (Corning 178, Ciba Corning Diag., Medford, Mass.). Rectal temperature was maintained between 36.5-37.5° C. with a homeothermic blanket system (YSI, Yellow Springs, Ohio).
Focal cerebral ischemia was induced by occlusion of middle cerebral artery (MCA) using the intraluminal filament technique. […] Through a ventral midline incision, the right common and external arteries were isolated and ligated. A microvascular clip (Zen temporary clip, Ohwa Tsusho, Tokyo, Japan) was temporarily placed on the internal artery and the pterygopalatine artery. An 8-0 nylon monofilament (Ethicon, Somerville, N.J.) coated with silicone was introduced through a small incision in the common corotid artery and advanced 10 mm distal to the carotid bifurcation so as to occlude the MCA and posterior communicating artery. The wound was sutured and the animal returned to its cage and allowed free access to water and food.
Twenty-four hours later, animals were sacrificed with an overdoses of pentobarbital and the brains removed and sectioned coronally into five 2-mm slices in a mouse brain matrix. Slices were placed in 2% TTC solution, followed by 10% formalin overnight. […] The infarction area, outlined in white, was measured (Bioquant IV image analysis system) on the posterior surface of each section, and the infarction volume was calculated by summing the infarct volumes of sequential 2 mm thick sections. […]

[4] = eNOS mutant mice; 250 μg/ml in drinking water, daily dose about 750 μg; decrease from 102 mm Hg
Protocol: The effect of hypertension in vascular injury responses (both filament and cuff models) is measured by repeating the experiments after treating eNOS mutant mice with hydralazine to reduce their blood pressure to normotensive levels.

[5] = Physiological data (blood gases, MABP) before MCA occlusion and after ischemia; assay type: in vivo, mice
Protocol: The right femoral artery was cannulated with PE-10 polyethylene tubing for arterial blood pressure measurement (Gould, Oxnard, Calif.) and blood gas determination (Corning 178, Ciba Corning Diag., Medford, Mass.). Rectal temperature was maintained between 36.5-37.5° C. with a homeothermic blanket system (YSI, Yellow Springs, Ohio). […] The investigator was blinded to the treatment group in this protocol.

[6] = Amygdaloid complex, nNOS mutant
[7] = Cerebellum (molecular layer), SV-129
[8] = Cerebellum (molecular layer), nNOS mutant
[9] = Hippocampal CA3 subfield, SV-129
[10] = Hippocampal CA3 subfield, nNOS mutant

## O=[N+]([O-])c1cccc2cn[nH]c12 [7-NI, 7-nitroindazole]
[1]
  effect on blood pressure: does not increase blood pressure
NOS binding sites; 100 μM, all regions measured, wild-type and eNOS mutant mice
  [3H]L-NA binding in the presence of 7-NI: significantly decreased
NOS binding sites; Amygdaloid complex, C57black/6
  L-NA displaceable [3H]L-NA binding in the presence of 7-NI: 21 ± 4.8 fmol/mg tissue
NOS binding sites; Amygdaloid complex, SV-129
  L-NA displaceable [3H]L-NA binding in the presence of 7-NI: 21 ± 2.1 fmol/mg tissue
NOS binding sites; Amygdaloid complex, eNOS mutant
  L-NA displaceable [3H]L-NA binding in the presence of 7-NI: 21 ± 2.9 fmol/mg tissue
NOS binding sites; [6]
  L-NA displaceable [3H]L-NA binding in the presence of 7-NI: 23 ± 2.5 fmol/mg tissue
NOS binding sites; Cerebellum (molecular layer), C57black/6
  L-NA displaceable [3H]L-NA binding in the presence of 7-NI: 23 ± 5.4 fmol/mg tissue
NOS binding sites; [7]
  L-NA displaceable [3H]L-NA binding in the presence of 7-NI: 18 ± 1.3 fmol/mg tissue
NOS binding sites; Cerebellum (molecular layer), eNOS mutant
  L-NA displaceable [3H]L-NA binding in the presence of 7-NI: 20 ± 2.2 fmol/mg tissue
NOS binding sites; [8]
  L-NA displaceable [3H]L-NA binding in the presence of 7-NI: 24 ± 1.0 fmol/mg tissue
NOS binding sites; Dentate gyrus, C57black/6
  L-NA displaceable [3H]L-NA binding in the presence of 7-NI: 22 ± 4.6 fmol/mg tissue
NOS binding sites; Dentate gyrus, SV-129
  L-NA displaceable [3H]L-NA binding in the presence of 7-NI: 18 ± 0.7 fmol/mg tissue
NOS binding sites; Dentate gyrus, eNOS mutant
  L-NA displaceable [3H]L-NA binding in the presence of 7-NI: 20 ± 2.7 fmol/mg tissue
NOS binding sites; Dentate gyrus, nNOS mutant
  L-NA displaceable [3H]L-NA binding in the presence of 7-NI: 22 ± 1.7 fmol/mg tissue
NOS binding sites; Hippocampal CA3 subfield, C57black/6
  L-NA displaceable [3H]L-NA binding in the presence of 7-NI: 22 ± 4.7 fmol/mg tissue
NOS binding sites; [9]
  L-NA displaceable [3H]L-NA binding in the presence of 7-NI: 18 ± 1.8 fmol/mg tissue
NOS binding sites; Hippocampal CA3 subfield, eNOS mutant
  L-NA displaceable [3H]L-NA binding in the presence of 7-NI: 21 ± 1.8 fmol/mg tissue
NOS binding sites; [10]
  L-NA displaceable [3H]L-NA binding in the presence of 7-NI: 23 ± 2.3 fmol/mg tissue
NOS binding sites; Olfactory bulb (glanular layer), C57black/6
  L-NA displaceable [3H]L-NA binding in the presence of 7-NI: 28 ± 4.1 fmol/mg tissue
NOS binding sites; Olfactory bulb (glanular layer), SV-129
  L-NA displaceable [3H]L-NA binding in the presence of 7-NI: 17 ± 0.7 fmol/mg tissue
NOS binding sites; Olfactory bulb (glanular layer), nNOS mutant
  L-NA displaceable [3H]L-NA binding in the presence of 7-NI: 30 ± 2.7 fmol/mg tissue

## NC(=N[N+](=O)[O-])NCCCC(N)C(=O)O [D-NA, D-N^G-nitro-arginine]
[2]; wild-type and eNOS mutant mice, 12 mg/kg
  blood pressure effects as seen with L-NA: not seen
Pial arterioles; eNOS mutant mice, 1 mM superfusion
  change in pial diameter: No change
NOS binding sites; Amygdaloid complex, SV-129
  L-NA displaceable [3H]L-NA binding in the presence of D-NA: 64 ± 7.6 fmol/mg tissue
NOS binding sites; [6]
  L-NA displaceable [3H]L-NA binding in the presence of D-NA: 3 ± 1.7*^,# fmol/mg tissue
NOS binding sites; [7]
  L-NA displaceable [3H]L-NA binding in the presence of D-NA: 59 ± 6.7 fmol/mg tissue
NOS binding sites; [8]
  L-NA displaceable [3H]L-NA binding in the presence of D-NA: 0 ± 3.6*^,# fmol/mg tissue
NOS binding sites; Dentate gyrus, SV-129
  L-NA displaceable [3H]L-NA binding in the presence of D-NA: 43 ± 4.8 fmol/mg tissue
NOS binding sites; Dentate gyrus, nNOS mutant
  L-NA displaceable [3H]L-NA binding in the presence of D-NA: 2 ± 1.9*^,# fmol/mg tissue
NOS binding sites; [9]
  L-NA displaceable [3H]L-NA binding in the presence of D-NA: 66 ± 5.9 fmol/mg tissue
NOS binding sites; [10]
  L-NA displaceable [3H]L-NA binding in the presence of D-NA: 3 ± 1.9*^,# fmol/mg tissue
NOS binding sites; Olfactory bulb (granular layer), SV-129
  L-NA displaceable [3H]L-NA binding in the presence of D-NA: 92 ± 10.8 fmol/mg tissue
NOS binding sites; Olfactory bulb (granular layer), nNOS mutant
  L-NA displaceable [3H]L-NA binding in the presence of D-NA: 5 ± 3.0*^,# fmol/mg tissue

## NC(=N[N+](=O)[O-])NCCCC(N)C(=O)O [L-NA, L-nitroarginine]
Aortic rings; wild-type vessel rings, 10^-4 M L-NA for 1 hour
  acetylcholine-induced relaxation after L-NA treatment: abolished
Pial arterioles; 1 mM superfusion
  change in MABP during superfusion: no change
Pial arterioles; eNOS mutant mice, 1 mM superfusion for 40 min
  pial vessel diameter: increased
[3]; protocol 2, wild-type mice
  change of lesion size after MCA occlusion: did not change
NOS binding sites; 10 μM, all brain regions of all mouse strains
  density of [3H]L-NA binding sites in the presence of L-NA: very low

## N=C(N)NCCC[C@H](N)C(=O)O [L-arginine]
[2]; 200 mg/kg, intraperitoneal
  effect on the blood pressure responses to L-NA: prevented

## CC(=O)OCC[N+](C)(C)C [acetylcholine]
Aortic rings; wild-type aortic segments pre-contracted with 10^-7 M norepinephrine, acetylcholine 3×10^-5 M
  pre-addition tone present after acetylcholine: 60.3±14.6%

## NNc1nncc2ccccc12 [hydralazine, hydralazine hydrochloride]
[3]; eNOS mutants made normotensive by hydralazine
  change of infarct size: did not change
[3]; protocol 1, eNOS mutant mice made normotensive by hydralazine 1 mg/kg ip 1 hr before and 5, 17 hrs after MCA occlusion, n=10
  infarct volume: 48±7 % of hemisphere
[4]
  mean arterial pressure after hydralazine: 72 mm Hg
[5]; eNOS mutant mice given hydralazine vs wild-type mice
  MABP difference between groups after hydralazine administration: did not differ
[5]; protocol 1, eNOS mutant, hydralazine, 10 min before MCA occlusion
  MABP before: 102 ± 6 mmHg
[5]; protocol 1, eNOS mutant, hydralazine, 24 hrs after ischemia
  MABP after: 102 mmHg
